Literature values, collected in US20240408053A1, “ENTERITIS-SUPPRESSING COMPOSITION” (KOBE GAKUIN EDUCATIONAL FOUNDATION, priority 2021, published 2024).

Details: blood metabolites after oral sesaminol in rats, for a short time (NPL 11); cited from earlier work

Substance	antioxidant activity relative to that of sesaminol
5″-methylated sesamin-6-catechol	approximately 1.6 times
sesaminol-6-catechol	approximately 1.6 times
